Experimental data published in paper PMC13266984 (Journal of medicinal chemistry, 2026).
Where “and” joins values, the source holds several entries; their conditions need not be identical. Equal entries are not always repeated.

Assays:
[1] = molecular target: T1, OE19 (3A1) (Homo sapiens, UniProt P30838); assay: Cellular ALDEFLUOR assay in OE19 cells (preferential ALDH3A1 expression); settings: for IC50: cellular IC50 (Aldefluor), OE19 cells
T1 sequence (P30838 1-453): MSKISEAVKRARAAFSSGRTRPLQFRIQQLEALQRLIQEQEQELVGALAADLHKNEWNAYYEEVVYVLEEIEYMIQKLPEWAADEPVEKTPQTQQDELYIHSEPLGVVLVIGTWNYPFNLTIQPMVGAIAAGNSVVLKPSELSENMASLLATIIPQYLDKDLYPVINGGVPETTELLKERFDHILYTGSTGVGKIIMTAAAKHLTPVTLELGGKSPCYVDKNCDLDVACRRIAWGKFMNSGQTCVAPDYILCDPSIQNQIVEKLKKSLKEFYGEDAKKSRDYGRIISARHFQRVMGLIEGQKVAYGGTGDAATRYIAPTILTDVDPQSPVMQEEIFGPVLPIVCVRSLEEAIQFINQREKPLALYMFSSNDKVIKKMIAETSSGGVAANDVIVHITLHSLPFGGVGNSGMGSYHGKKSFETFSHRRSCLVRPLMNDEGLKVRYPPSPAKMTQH

[2] = pION μSOL kinetic aqueous solubility; assay type: physicochemical; settings: in words; pH7.4
[3] = molecular target: T2, Human ALDH3A1 (Homo sapiens, UniProt P30838); assay: ALDH3A1 biochemical assay (benzaldehyde/NADP+, diaphorase-resazurin readout, 1,536-well); settings: for IC50Ratio: 20X[SUB] vs 1X[SUB] benzaldehyde; for LLE: Table S7, pAC50 − cLogP; for inhibition mechanism (benzaldehyde substrate shift): retested at 4,000 μM benzaldehyde
T2 sequence (P30838 1-453): T1 sequence (P30838 1-453)

[4] = Metabolic stability in rat liver microsome fractions; assay type: in vitro ADME; settings: in words
[5] = 20X[SUB] IC50 [µM], benzaldehyde 4,000 µM (~20× Km), NADP+ 1,000 µM
[6] = Table S5, biochemical curve class
[7] = Table S4, biochemical curve class

Row | Compound | AC50 [1] [nM] | Cell_Efficacy ([1]; Table S5, OE19 cells) | Cell_CC-v2 ([1]; Table S5, cellular curve class) | AC50 [3] [nM] | Efficacy ([3]; Table S5, biochemical) | CC-v2 [3, 6] | Cell_Efficacy ([1]; Table S4, OE19 cells) | Cell_CC-v2 ([1]; Table S4, cellular curve class) | Efficacy ([3]; Table S4, biochemical) | CC-v2 [3, 7] | also measured
1 | O=C(NCc1cccc(C2CC2)c1)c1csc(N2CCN(c3cccc(C(F)(F)F)c3)CC2)n1 [Compound 13] | 13.6 | -65.41 | -1.2 | 1.1 | -107.26 | -1.1 |  |  |  |  | IC50 [1]: 13.6 nM and 14 nM and ~14 nM; kinetic aqueous solubility [2]: limited kinetic aqueous solubility; IC50 [3, 5]: 0.0316 µM; IC50Ratio [3]: 28; IC50 ([3]; ALDH3A1 biochemical IC50): 0.001 µM; LLE [3]: 3.663; inhibition mechanism (benzaldehyde substrate shift) [3]: consistent with substrate-competitive inhibition
2 | Cc1nc(-c2cccc(CNC(=O)c3csc(N4CCN(c5cccc(C(F)(F)F)c5)CC4)n3)c2)cs1 [Compound 14] | 3.8 | -94.02 | -1.1 | 31.6 | -99.22 | -1.1 |  |  |  |  | IC50 [1]: 4 nM and 3.84 nM and ~4 nM; microsomal stability [4]: only moderate microsomal stability; kinetic aqueous solubility [2]: limited kinetic aqueous solubility; IC50 [3, 5]: 1 µM; IC50Ratio [3]: 32; IC50 ([3]; ALDH3A1 biochemical IC50): 0.0316 µM and 0.032 µM and ~0.032 µM; LLE [3]: 1.65; inhibition mechanism (benzaldehyde substrate shift) [3]: consistent with substrate-competitive inhibition
3 | Cc1cccc(CNC(=O)c2csc(N3CCN(c4ccc(Cl)cn4)CC3)n2)c1 [Compound 11] | 3510 |  |  | 460 |  |  | -68.27 | -1.2 | -99.36 | -1.1 | activity in the biochemical assay ([3]; in words): good activity
4 | Cc1cccc(CNC(=O)c2csc(N3CCN(c4ccc(C(F)(F)F)cn4)CC3)n2)c1 [NCGC01210237-01] | 3130 |  |  | 730 |  |  | -106.55 | -1.3 | -94.33 | -1.1 | 
5 | Cc1cccc(CNC(=O)c2csc(N3CCN(c4ccc(Cl)c(Cl)c4)CC3)n2)c1 [NCGC01211120-01] | 790 |  |  | 510 |  |  | -88.59 | -1.1 | -83.25 | -1.1 | 
6 | Cc1cccc(CNC(=O)c2csc(N3CCN(c4ccc(F)c(Cl)c4)CC3)n2)c1 [Compound 12] | 990 |  |  | 510 |  |  | -76.59 | -1.1 | -99.84 | -1.1 | 
7 | O=C(NCc1ccc2ccccc2c1)c1csc(N2CCN(c3cccc(C(F)(F)F)c3)CC2)n1 [Compound 17] | 40.7 | -93.35 | -1.1 | 11.9 | -92.05 | -1.1 |  |  |  |  | 
8 | Cc1cccc(CNC(=O)c2csc(N3CCN(c4ccc(C5(C#N)CCCC5)cc4)CC3)n2)c1 [NCGC01210598-01] | 3930 |  |  | 1020 |  |  | -104.17 | -2.1 | -62.83 | -1.2 | 
9 | Cc1cccc(CNC(=O)c2csc(N3CCN(c4cccc(C(F)(F)F)c4)CC3)n2)c1 [Compound 5] | 3130 |  |  | 230 |  |  | -101.21 | -2.2 | -100.07 | -1.1 | IC50 [1]: 3130 nM; IC50 ([3]; ALDH3A1 biochemical IC50): 0.23 µM and 0.229 µM
10 | Cc1cccc(CNC(=O)c2csc(N3CCN(c4cccc(Sc5ccc(C)cc5C)c4)CC3)n2)c1 [NCGC01211184-01] | 310 |  |  |  |  |  | -95.63 | -1.1 | -26.97 | 4 | 

More lines, main results first:

Row | AC50 [1] [nM] | Cell_Efficacy ([1]; Table S5, OE19 cells) | Cell_CC-v2 ([1]; Table S5, cellular curve class) | AC50 [3] [nM] | Efficacy ([3]; Table S5, biochemical) | CC-v2 [3, 6] | Cell_Efficacy ([1]; Table S4, OE19 cells) | Cell_CC-v2 ([1]; Table S4, cellular curve class) | Efficacy ([3]; Table S4, biochemical) | CC-v2 [3, 7] | Compound | also measured
11 | 316 | -103.28 | -1.1 | 501 | -83.40 | -1.1 |  |  |  |  | O=C(NCc1cccc(OC(F)(F)F)c1)c1csc(N2CCN(c3cccc(C(F)(F)F)c3)CC2)n1 [NCGC01407819-01] | 
12 | 3050 | -82.49 | -1.3 | 4 | -97.11 | -1.1 |  |  |  |  | O=C(NCc1ccc(-c2ccsc2)cc1)c1csc(N2CCN(c3cccc(C(F)(F)F)c3)CC2)n1 [NCGC01397331-01] | 
13 | 11200 | -62.69 | -1.4 |  | 0.00 | 4 |  |  |  |  | O=C(NCc1ccccc1-c1ccc(Cl)cc1Cl)c1csc(N2CCN(c3cccc(C(F)(F)F)c3)CC2)n1 [NCGC01407762-01] | 
14 | 398 | -10.99 | 5 | 447 | -60.58 | -1.2 |  |  |  |  | O=C(NCc1ccc2c(c1)C(=O)NCC2)c1csc(N2CCN(c3cccc(C(F)(F)F)c3)CC2)n1 [NCGC01397286-01] | 
15 | 811 | -88.39 | -1.2 | 23.7 | -97.73 | -1.1 |  |  |  |  | O=C(NCc1cccc(Cl)c1)c1csc(N2CCN(c3cccc(C(F)(F)F)c3)CC2)n1 [NCGC01407982-01] | 
16 |  | 0.00 | 4 | 89.2 | -65.00 | -1.2 |  |  |  |  | O=C(Nc1ccc(F)cc1)c1ccc(CNC(=O)c2csc(N3CCN(c4cccc(C(F)(F)F)c4)CC3)n2)cc1 [NCGC01407706-01] | 
17 | 100 | -85.75 | -1.1 | 355 | -39.06 | -1.2 |  |  |  |  | O=C(Nc1ccc(CNC(=O)c2csc(N3CCN(c4cccc(C(F)(F)F)c4)CC3)n2)cc1)c1ccc(F)cc1 [NCGC01407975-01] | 
18 |  | 0.00 | 4 |  | -7.18 | 4 |  |  |  |  | CC(C)(C)c1cc(CNC(=O)c2csc(N3CCN(c4cccc(C(F)(F)F)c4)CC3)n2)cc(C(C)(C)C)c1 [NCGC01407780-01] | 
19 | 3050 | -89.96 | -1.2 | 25.1 | -94.50 | -1.1 |  |  |  |  | O=C(NCc1ccc(SC(F)(F)F)cc1)c1csc(N2CCN(c3cccc(C(F)(F)F)c3)CC2)n1 [NCGC01407771-01] | 
20 |  | 0.00 | 4 | 50.1 | -90.79 | -1.1 |  |  |  |  | O=C(NCc1c(Cl)cccc1Br)c1csc(N2CCN(c3cccc(C(F)(F)F)c3)CC2)n1 [NCGC01407972-01] | 
21 | 3130 |  |  | 4080 |  |  | -98.82 | -1.1 | -37.13 | -1.2 | Cc1cccc(CNC(=O)c2csc(N3CCN(c4ccc(N5CCOCC5)cc4)CC3)n2)c1 [NCGC01211186-01] | 
